Among the data in US10870647B2, “Imidazopyridine derivative, method for preparing same, and pharmaceutical composition containing same as active ingredient for preventing or treating cancer” (DAEGU-GYEONGBUK MEDICAL INNOVATION FOUNDATION, priority 2016, dated 2020) are remaining binding values, retold here.

Holding throughout (test): Kinase selectivity, scanMAX Kinase assay panel (DiscoverX), % control at 1 uM
What all share (type): binding

Assay [1] deals with T1, scanMAX Kinase assay panel (Homo sapiens, UniProt Q5S007, G2019S).
T1 construct: purchased DiscoverX
The conditions noted are these: LRRK2 (G2019S); 1 uM; read-out: Percent Control (%). The gist of the method: (§1)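 Single-point screen at 1 uM compound in DMSO. Lower % control means stronger inhibition, with the cutoff for activity set at <35%.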

Assay [2] addresses T2, scanMAX Kinase assay panel (Homo sapiens, UniProt P29323).
T2 construct: purchased DiscoverX
T2 sequence (P29323 19-1055): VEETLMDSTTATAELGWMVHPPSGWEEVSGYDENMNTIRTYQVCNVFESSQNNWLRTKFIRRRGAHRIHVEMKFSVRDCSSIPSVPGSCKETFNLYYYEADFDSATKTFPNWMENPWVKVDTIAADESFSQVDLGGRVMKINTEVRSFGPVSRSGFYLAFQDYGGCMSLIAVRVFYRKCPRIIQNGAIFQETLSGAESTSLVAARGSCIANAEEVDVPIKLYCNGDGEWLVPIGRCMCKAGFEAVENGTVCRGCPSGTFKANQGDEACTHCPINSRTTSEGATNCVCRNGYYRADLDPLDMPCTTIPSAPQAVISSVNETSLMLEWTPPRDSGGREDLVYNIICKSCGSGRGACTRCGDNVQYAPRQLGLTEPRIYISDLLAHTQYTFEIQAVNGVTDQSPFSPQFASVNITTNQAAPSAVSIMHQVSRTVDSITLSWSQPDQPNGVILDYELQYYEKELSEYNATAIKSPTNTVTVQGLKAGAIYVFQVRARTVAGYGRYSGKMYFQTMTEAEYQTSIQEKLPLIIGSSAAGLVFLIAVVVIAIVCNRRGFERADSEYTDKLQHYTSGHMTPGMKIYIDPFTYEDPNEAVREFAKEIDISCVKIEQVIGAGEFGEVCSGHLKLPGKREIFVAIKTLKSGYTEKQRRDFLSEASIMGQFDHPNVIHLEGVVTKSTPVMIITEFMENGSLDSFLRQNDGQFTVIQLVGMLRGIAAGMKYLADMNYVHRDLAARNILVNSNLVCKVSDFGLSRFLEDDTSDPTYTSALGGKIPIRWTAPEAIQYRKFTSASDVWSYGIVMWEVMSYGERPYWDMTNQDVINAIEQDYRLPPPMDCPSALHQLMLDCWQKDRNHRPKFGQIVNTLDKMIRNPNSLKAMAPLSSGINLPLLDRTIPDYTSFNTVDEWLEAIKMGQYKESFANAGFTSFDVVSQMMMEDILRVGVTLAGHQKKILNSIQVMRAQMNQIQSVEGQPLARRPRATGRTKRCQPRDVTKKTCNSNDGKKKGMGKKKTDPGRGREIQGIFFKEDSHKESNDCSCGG
Conditions: EPHB2; 1 uM; read-out: Percent Control (%). The method in brief:
as §1

The target in assay [3] is T3, scanMAX Kinase assay panel (Homo sapiens, UniProt P15735).
T3 construct: purchased DiscoverX
T3 sequence (P15735 1-406): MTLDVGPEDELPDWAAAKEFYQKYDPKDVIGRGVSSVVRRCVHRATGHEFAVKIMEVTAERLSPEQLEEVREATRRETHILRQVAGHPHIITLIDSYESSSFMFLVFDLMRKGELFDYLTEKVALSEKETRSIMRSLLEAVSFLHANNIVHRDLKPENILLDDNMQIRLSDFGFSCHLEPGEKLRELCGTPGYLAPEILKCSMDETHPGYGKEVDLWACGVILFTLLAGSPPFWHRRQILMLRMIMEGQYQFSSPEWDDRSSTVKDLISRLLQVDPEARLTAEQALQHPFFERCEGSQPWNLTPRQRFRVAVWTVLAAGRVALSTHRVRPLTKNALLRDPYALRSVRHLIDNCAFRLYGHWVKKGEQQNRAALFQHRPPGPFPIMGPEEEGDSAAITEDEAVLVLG
The conditions noted are these: PHKG2; 1 uM; read-out: Percent Control (%). The gist of the method: as §1

T1 sequence (Q5S007 whole entry G2019S): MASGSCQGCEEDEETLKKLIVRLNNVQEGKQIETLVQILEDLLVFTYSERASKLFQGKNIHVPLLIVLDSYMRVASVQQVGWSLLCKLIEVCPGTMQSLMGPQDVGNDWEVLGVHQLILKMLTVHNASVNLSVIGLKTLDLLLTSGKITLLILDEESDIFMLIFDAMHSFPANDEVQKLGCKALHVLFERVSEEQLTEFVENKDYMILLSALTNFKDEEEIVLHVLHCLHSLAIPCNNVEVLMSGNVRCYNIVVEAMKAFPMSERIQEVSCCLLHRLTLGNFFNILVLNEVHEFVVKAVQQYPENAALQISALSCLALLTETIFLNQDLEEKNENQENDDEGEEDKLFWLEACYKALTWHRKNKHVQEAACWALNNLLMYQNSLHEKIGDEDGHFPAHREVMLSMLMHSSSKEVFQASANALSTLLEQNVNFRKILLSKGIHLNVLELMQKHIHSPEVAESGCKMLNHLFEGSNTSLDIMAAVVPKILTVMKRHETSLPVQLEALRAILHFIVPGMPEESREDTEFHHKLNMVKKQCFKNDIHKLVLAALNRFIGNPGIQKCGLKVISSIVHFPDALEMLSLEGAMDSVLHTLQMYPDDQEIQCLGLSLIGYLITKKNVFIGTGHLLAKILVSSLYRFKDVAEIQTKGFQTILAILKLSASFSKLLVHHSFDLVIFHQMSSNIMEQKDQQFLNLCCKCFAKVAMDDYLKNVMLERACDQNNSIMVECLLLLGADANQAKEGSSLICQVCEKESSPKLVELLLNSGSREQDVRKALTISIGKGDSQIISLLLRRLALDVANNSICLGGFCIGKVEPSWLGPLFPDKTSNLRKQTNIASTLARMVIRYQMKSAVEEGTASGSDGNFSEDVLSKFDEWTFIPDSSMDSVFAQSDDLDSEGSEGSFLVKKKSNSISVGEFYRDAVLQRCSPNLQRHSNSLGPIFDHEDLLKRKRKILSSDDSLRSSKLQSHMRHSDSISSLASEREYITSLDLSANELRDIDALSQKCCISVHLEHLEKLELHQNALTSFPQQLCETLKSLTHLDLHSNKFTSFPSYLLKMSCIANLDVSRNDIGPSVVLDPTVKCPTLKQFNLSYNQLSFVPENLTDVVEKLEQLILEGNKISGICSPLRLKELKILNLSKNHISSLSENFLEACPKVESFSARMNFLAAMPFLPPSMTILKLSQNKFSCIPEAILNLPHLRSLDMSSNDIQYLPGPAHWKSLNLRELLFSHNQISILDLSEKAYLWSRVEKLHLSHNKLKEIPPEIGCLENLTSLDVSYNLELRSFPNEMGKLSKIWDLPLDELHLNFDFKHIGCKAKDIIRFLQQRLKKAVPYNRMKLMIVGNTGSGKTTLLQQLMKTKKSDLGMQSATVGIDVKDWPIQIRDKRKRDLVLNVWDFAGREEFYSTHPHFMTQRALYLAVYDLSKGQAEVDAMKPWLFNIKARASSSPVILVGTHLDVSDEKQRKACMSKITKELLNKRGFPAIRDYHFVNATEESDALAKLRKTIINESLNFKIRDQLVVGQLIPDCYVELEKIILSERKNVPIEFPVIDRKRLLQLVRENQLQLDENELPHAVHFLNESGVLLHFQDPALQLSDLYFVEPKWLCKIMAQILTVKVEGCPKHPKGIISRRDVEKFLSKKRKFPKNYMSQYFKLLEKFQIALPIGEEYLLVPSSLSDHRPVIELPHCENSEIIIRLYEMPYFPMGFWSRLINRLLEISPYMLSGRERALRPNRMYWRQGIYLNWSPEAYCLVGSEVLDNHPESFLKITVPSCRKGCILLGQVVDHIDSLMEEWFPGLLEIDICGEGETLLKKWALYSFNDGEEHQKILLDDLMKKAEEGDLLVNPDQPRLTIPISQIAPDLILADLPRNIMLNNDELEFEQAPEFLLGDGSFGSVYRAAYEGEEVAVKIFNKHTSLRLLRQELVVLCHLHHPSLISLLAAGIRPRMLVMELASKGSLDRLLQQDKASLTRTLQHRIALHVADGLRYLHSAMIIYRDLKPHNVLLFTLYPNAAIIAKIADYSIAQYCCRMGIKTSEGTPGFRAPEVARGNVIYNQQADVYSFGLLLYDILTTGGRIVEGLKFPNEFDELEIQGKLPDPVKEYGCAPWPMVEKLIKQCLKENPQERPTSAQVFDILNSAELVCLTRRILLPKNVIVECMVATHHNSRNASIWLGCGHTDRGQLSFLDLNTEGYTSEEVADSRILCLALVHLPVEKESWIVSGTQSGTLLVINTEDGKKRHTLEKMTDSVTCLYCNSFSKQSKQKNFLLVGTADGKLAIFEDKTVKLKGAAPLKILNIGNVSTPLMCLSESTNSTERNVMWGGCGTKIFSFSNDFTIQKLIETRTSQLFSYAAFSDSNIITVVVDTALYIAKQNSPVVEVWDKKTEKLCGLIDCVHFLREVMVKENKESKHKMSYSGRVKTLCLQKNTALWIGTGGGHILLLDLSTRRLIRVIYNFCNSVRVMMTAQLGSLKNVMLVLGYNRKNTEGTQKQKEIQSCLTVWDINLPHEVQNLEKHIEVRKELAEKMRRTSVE

`Cc1ccc(C(=O)Nc2ccc(CN3CCN(C)CC3)c(C(F)(F)F)c2)cc1C#Cc1cnc2c(Nc3cnn(C)c3)cccn12` [Example 1, 4-methyl-3-((8-((1-methyl-1H-pyrazol-4-yl)amino)imidazo[1,2-a]pyridin-3-yl)ethynyl)-N-(4-((4-methylpiperazin-1-yl)methyl)-3-(trifluoromethyl)phenyl)benzamide]: the remaining binding at 1 µM in assay [1] is 27%; in assay [2], 0%; in assay [3], 72%.

For `Cc1cn(-c2cc(NC(=O)c3ccc(C)c(C#Cc4cnc5c(Nc6cnn(C)c6)cccn45)c3)cc(C(F)(F)F)c2)cn1` [Example 12, 4-methyl-N-(3-(4-methyl-1H-imidazol-1-yl)-5-(trifluoromethyl)phenyl)-3-((8-((1-methyl-1H-pyrazol-4-yl)amino)imidazo[1,2-a]pyridin-3-yl)ethynyl)benzamide], the remaining binding at 1 µM in assay [1] amounted to 100%; in assay [2] it was 27%; in assay [3] it was 89%.

Consider `Cc1ccc(NC(=O)C2(C(=O)Nc3ccc(F)cc3)CC2)cc1C#Cc1cnc2c(Nc3cnn(C(C)C)c3)cccn12` [Example 78], for which the remaining binding at 1 µM in assay [1] came out at 100%; in assay [2] it was 98%; in assay [3], 100%.
